Molecules are shown by their SMILES. Active and inactive are the calls of the source. The calls are words filed in the database; no cut-off is given here.

We go through three compounds from ChEMBL document CHEMBL1159227, “Piperogalin, a new prenylated diphenol from Peperomia galioides” (1995).

In one test the test system is Trypanosoma cruzi. As to the kind of experiment: Antitrypanosomal activity against Trypanosoma cruzi Y trypomastigotes assessed as lysis of trypomastigotes at 250 ug/ml after 24 hrs at 4 degC. The test is classed as functional.
Test [1] concerns Leishmania braziliensis. As to the kind of experiment: Antileishmanial activity against Leishmania braziliensis 2903 promastigotes assessed as total lysis of parasites at 100 ug/ml after 24 hrs at 28 degC. The test is classed as functional, organism-based.
The test system of test [2] is Leishmania braziliensis. As to the kind of experiment: Antileishmanial activity against Leishmania braziliensis 2903 promastigotes assessed as total lysis of parasites at 50 ug/ml after 24 hrs at 28 degC. The test is classed as functional, organism-based.
The test system of test [3] is Leishmania donovani. As to the kind of experiment: Antileishmanial activity against Leishmania donovani PP75 promastigotes assessed as total lysis of parasites at 50 ug/ml after 24 hrs at 28 degC. The test is classed as functional, organism-based.
Test [4] concerns Leishmania amazonensis. As to the kind of experiment: Antileishmanial activity against Leishmania amazonensis promastigotes assessed as total lysis of parasites at 50 ug/ml after 24 hrs at 28 degC. The test is classed as functional, organism-based.
The subject of test [5] is Leishmania braziliensis. The test can be described thus: Antileishmanial activity against Leishmania braziliensis 2903 promastigotes assessed as total lysis of parasites at 25 ug/ml after 24 hrs at 28 degC. The test is classed as functional, organism-based.
The test system of test [6] is Leishmania donovani. The test can be described thus: Antileishmanial activity against Leishmania donovani PP75 promastigotes assessed as total lysis of parasites at 25 ug/ml after 24 hrs at 28 degC. The test is classed as functional, organism-based.
Test [7] relates to Leishmania amazonensis. As to the kind of experiment: Antileishmanial activity against Leishmania amazonensis promastigotes assessed as total lysis of parasites at 25 ug/ml after 24 hrs at 28 degC. The test is classed as functional, organism-based.
Test [8] concerns Leishmania braziliensis. As to the kind of experiment: Antileishmanial activity against Leishmania braziliensis 2903 promastigotes assessed as immobilized parasites at 10 ug/ml after 24 hrs at 28 degC. The test is classed as functional, organism-based.
For test [9], the system named is Leishmania donovani. As to the kind of experiment: Antileishmanial activity against Leishmania donovani PP75 promastigotes assessed as immobilized parasites at 10 ug/ml after 24 hrs at 28 degC. The test is classed as functional, organism-based.
The subject of test [10] is Leishmania amazonensis. The test can be described thus: Antileishmanial activity against Leishmania amazonensis promastigotes assessed as immobilized parasites at 10 ug/ml after 24 hrs at 28 degC. The test is classed as functional, organism-based.
In test [11] the test system is Leishmania donovani. The test can be described thus: Antileishmanial activity against Leishmania donovani PP75 promastigotes assessed as total lysis of parasites at 100 ug/ml after 24 hrs at 28 degC. The test is classed as functional, organism-based.
Test [12] deals with Leishmania amazonensis. The test can be described thus: Antileishmanial activity against Leishmania amazonensis H142 promastigotes assessed as total lysis of parasites at 100 ug/ml after 24 hrs at 28 degC. The test is classed as functional, organism-based.
Test [13] concerns Leishmania braziliensis. As to the kind of experiment: Antileishmanial activity against Leishmania braziliensis 2903 promastigotes assessed as lysis of parasites at 10 ug/ml after 24 hrs at 28 degC. The test is classed as functional.
Test [14] relates to Leishmania donovani. As to the kind of experiment: Antileishmanial activity against Leishmania donovani PP75 promastigotes assessed as lysis of parasites at 10 ug/ml after 24 hrs at 28 degC. The test is classed as functional.
Test [15] relates to Leishmania amazonensis. The test can be described thus: Antileishmanial activity against Leishmania amazonensis promastigotes assessed as lysis of parasites at 10 ug/ml after 24 hrs at 28 degC. The test is classed as functional.
Test [16] deals with Leishmania braziliensis. As to the kind of experiment: Antileishmanial activity against Leishmania braziliensis 2903 promastigotes assessed as immobilized parasites at 100 ug/ml after 24 hrs at 28 degC. The test is classed as functional, organism-based.

Take `CC(C)=CCC/C(C)=C/CC/C(C)=C/Cc1c(O)cc(C)cc1O` [GRIFOLIN]: the Activity with Trypanosoma cruzi was 68%. Moreover, the result with Leishmania braziliensis [1], with Leishmania braziliensis [2], with Leishmania donovani [3], in the test on Leishmania amazonensis [4], in the test with Leishmania braziliensis [5] and with Leishmania donovani [6] was Active. The result with Leishmania amazonensis [7], in the test with Leishmania braziliensis [8], in the test on Leishmania donovani [9], in the test with Leishmania amazonensis [10], in the test on Leishmania donovani [11] and in the test with Leishmania amazonensis [12] was Active.
Consider `CC(C)=CCC/C(C)=C/Cc1c(O)cc(C)c(CC=C(C)C)c1O` [PIPEROGALIN], for which the Activity in the test on Trypanosoma cruzi is on record as 42%; in the test with Leishmania braziliensis [13] it was greater than 90%; with Leishmania donovani [14], greater than 90%; in the test on Leishmania amazonensis [15] it was greater than 90%. Further, the outcome in the test on Leishmania braziliensis [1], with Leishmania donovani [3], in the test on Leishmania amazonensis [4], in the test with Leishmania braziliensis [5], with Leishmania donovani [6] and in the test with Leishmania amazonensis [7] was Active. The outcome in the test with Leishmania donovani [11] and in the test on Leishmania amazonensis [12] was Active.
For `CC(C)=CCC/C(C)=C/CC/C(C)=C/Cc1c(O)cc(C)c(C(=O)O)c1O` [GRIFOLIC ACID], the Activity in the test with Trypanosoma cruzi stood at 0%. Further, the outcome in the test with Leishmania braziliensis [16], in the test on Leishmania donovani [11] and in the test with Leishmania amazonensis [12] was Active.
